Here are results for two compounds from ChEMBL document CHEMBL6096634, “Exploration of novel 20S proteasome activators featuring anthraquinone structures and their application in hypoxic cardiomyocyte protection” (Bioorg Med Chem, 2024).

Calls of active or inactive are those of the source. The calls are words filed in the database; no cut-off is given here.

The target of experiment [1] is T1, 20S proteasome (Homo sapiens) (UniProt P49721+P20618+P28074+P28062+P28065+P28072+P25786+P25787+P25788+P25789+P28066+P60900+O14818+Q8TAA3+P40306+A5LHX3+P49720+P28070+Q99436). Description: (§1) Activation of human erythrocyte-derived 20s proteosome using CT-L as peptide substrate by fluorescence based analysis. As to conditions: filed as activator. It is filed as cell-based.

For experiment [2], the target named is 20S proteasome. The experiment is described as §1. It is filed as cell-based.
Experiment [3] addresses T1, 20S proteasome (Homo sapiens). Description: Activation of human erythrocyte-derived 20s proteosome using T-L as peptide substrate by fluorescence based analysis. As to conditions: filed as activator. It is filed as cell-based.
For experiment [4] the target is unchanged. Kind of experiment: Activation of human erythrocyte-derived 20s proteosome using CT-L as peptide substrate at 10 uM by fluorescence based analysis relative to control. It is filed as cell-based. Particulars: filed as activator.
In experiment [5] the test system is H9c2. Description: Protection against hypoxia-induced cell damage in rat H9c2 cells at 0.05 uM incubated for 14 hrs by MTT assay. It is filed as functional, cell-based.
Experiment [6] relates to H9c2. Description: Protection against hypoxia-induced cell damage in rat H9c2 cells at 0.1 uM incubated for 14 hrs by MTT assay. Format: functional, cell-based. A general note: Tetrazolium dyes change colour on reduction, which living cells bring about.
In experiment [7] the test system is H9c2. Description: Anti-apoptotic activity in rat H9c2 cells at 0.1 uM preincubated for 24 hrs followed by incubation under normoxic condition for 18 hrs by Annexin V-FITC and PI staining based flow cytometry analysis. It is filed as functional, cell-based. Particulars: time 42.0 hrs. (In flow cytometry, cells or beads pass a laser one at a time.)
Experiment [8] has as its system H9c2. Description: Anti-apoptotic activity in rat H9c2 cells at 0.1 uM preincubated for 24 hrs followed by incubation under hypoxic condition for 18 hrs by Annexin V-FITC and PI staining based flow cytometry analysis. As to conditions: time 42.0 hrs. Format: functional, cell-based.
The test system of experiment [9] is H9c2. Description: Anti-apoptotic activity in rat H9c2 cells at 0.1 uM under normoxic condition by TUNEL staining based analysis. Format: functional, cell-based.
The test system of experiment [10] is H9c2. Kind of experiment: Anti-apoptotic activity in rat H9c2 cells at 0.1 uM under hypoxic condition by TUNEL staining based analysis. Format: functional, cell-based.
Experiment [11] concerns H9c2. Kind of experiment: Anti-apoptotic activity in rat H9c2 cells assessed as viable cells at 0.1 uM preincubated for 24 hrs followed by incubation under normoxic condition for 18 hrs by Annexin V-FITC and PI staining based flow cytometry analysis (reference value: 94.7%). Format: functional. As to conditions: time 42 hrs, read-out: Activity.
Experiment [12] deals with H9c2. Description: Anti-apoptotic activity in rat H9c2 cells assessed as early apoptotic cells at 0.1 uM preincubated for 24 hrs followed by incubation under normoxic condition for 18 hrs by Annexin V-FITC and PI staining based flow cytometry analysis (reference value: 0.75%). Format: functional. As to conditions: time 42 hrs.
Experiment [13] has as its system H9c2. Description: Anti-apoptotic activity in rat H9c2 cells assessed as late apoptotic cells at 0.1 uM preincubated for 24 hrs followed by incubation under normoxic condition for 18 hrs by Annexin V-FITC and PI staining based flow cytometry analysis (reference value: 3.68%). Particulars: time 42 hrs. It is filed as functional.
In experiment [14] the test system is H9c2. Description: Anti-apoptotic activity in rat H9c2 cells assessed as necrotic cells at 0.1 uM preincubated for 24 hrs followed by incubation under normoxic condition for 18 hrs by Annexin V-FITC and PI staining based flow cytometry analysis (reference value: 0.60%). Format: functional. Particulars: time 42 hrs.
Experiment [15] relates to H9c2. Kind of experiment: Anti-apoptotic activity in rat H9c2 cells assessed as viable cells at 0.1 uM preincubated for 24 hrs followed by incubation under hypoxic condition for 18 hrs by Annexin V-FITC and PI staining based flow cytometry analysis (reference value: 85.85%). Format: functional. As to conditions: time 42 hrs, read-out: Activity.
Experiment [16] deals with H9c2. Kind of experiment: Anti-apoptotic activity in rat H9c2 cells assessed as early apoptotic cells at 0.1 uM preincubated for 24 hrs followed by incubation under hypoxic condition for 18 hrs by Annexin V-FITC and PI staining based flow cytometry analysis (reference value: 4.06%). Format: functional. As to conditions: time 42 hrs.
For experiment [17], the system named is H9c2. Description: Anti-apoptotic activity in rat H9c2 cells assessed as late apoptotic cells at 0.1 uM preincubated for 24 hrs followed by incubation under hypoxic condition for 18 hrs by Annexin V-FITC and PI staining based flow cytometry analysis (reference value: 8.60%). It is filed as functional. Particulars: time 42 hrs.
For experiment [18], the system named is H9c2. Kind of experiment: Anti-apoptotic activity in rat H9c2 cells assessed as necrotic cells at 0.1 uM preincubated for 24 hrs followed by incubation under hypoxic condition for 18 hrs by Annexin V-FITC and PI staining based flow cytometry analysis (reference value: 0.50%). Format: functional. As to conditions: time 42 hrs.
The subject of experiment [19] is H9c2. Kind of experiment: Upregulation of Ki-67 expression in rat H9c2 cells at 0.1 uM under normoxic condition by qRT-PCR analysis. It is filed as functional, cell-based. For orientation: Quantitative PCR measures a nucleic acid by following its amplification.
For experiment [20], the system named is H9c2. Kind of experiment: Upregulation of Ki-67 expression in rat H9c2 cells at 0.1 uM under hypoxic condition by qRT-PCR analysis. Format: functional, cell-based.
Experiment [21] has as its system H9c2. Kind of experiment: Effect on PCNA expression in rat H9c2 cells at 0.1 uM under normoxic condition by qRT-PCR analysis. Format: functional, cell-based.
In experiment [22] the test system is H9c2. Kind of experiment: Effect on PCNA expression in rat H9c2 cells at 0.1 uM under hypoxic condition by qRT-PCR analysis. Format: functional, cell-based.
For the next experiment, the system named is HEK293. Kind of experiment: Inhibition of […]-induced ER stress in HEK293 cells harbouring XBP1-delta DBD-Luc cells assessed as decrease in luciferase activity incubated for 8 hrs by […]. It is filed as functional, cell-based. As to conditions: Homo sapiens, dose 10-20 µM.
Experiment [23] deals with 20S proteasome. Description: Activation of 20s proteosome (unknown origin) mediated chymotrypsin-like activity. It is filed as protein-complex assay, Homo sapiens.
Experiment [24] addresses T1, 20S proteasome (Homo sapiens). Description: Activation of 20s proteosome (unknown origin) mediated chymotrypsin-like activity assessed as fold maximum enhancement. It is filed as protein-complex assay. As to conditions: filed as activator.

In general, EC50 refers to the concentration at which the effect is half-maximal. Low values mean greater potency, high ones weaker potency. Consider `Cc1ccccc1Nc1cc(NCC(C)C)c2noc3c2c1C(=O)c1ccccc1-3`, for which the EC200 in [1] is 0.67 µM. At 20S proteasome [2], this compound had an EC50 of 3.38 µM. The same compound yielded a fold change (FC) in [3] of 6.38. For the same compound, the Activity was 486% in experiment [4]; 0.65% in the experiment on H9c2 [12]; 3.53% in the experiment with H9c2 [13]; 1.3% in the experiment on H9c2 [14]; 1.18% in the experiment on H9c2 [16]; 4.73% in the experiment with H9c2 [17]. In addition, in the experiment on H9c2 [18], the Activity came to 1.34%. The outcome in the experiment with H9c2 [5], in the experiment on H9c2 [6], in the experiment on H9c2 [8], in the experiment with H9c2 [10], in the experiment with H9c2 [19] and in the experiment on H9c2 [20] was Active. In addition, the outcome with H9c2 [7], with H9c2 [9], with H9c2 [21] and in the experiment with H9c2 [22] was inactive. The viability at 0.1 µM is 94.6% with H9c2 [11] and 92.8% in the experiment with H9c2 [15]. The inhibition entry in the experiment on HEK293 was “Active”.
As to `CC1(C)CC[C@]2(C(=O)O)CC[C@]3(C)C(=CC[C@@H]4[C@@]5(C)CC[C@H](O)C(C)(C)[C@@H]5CC[C@]43C)[C@@H]2C1` [OLEANOLIC_ACID], the EC50 on 20S proteasome [23] came out at 2.7 µM. Also, the fold change (FC) in experiment [24] worked out at 8.
